Laboratory results published in ChEMBL document CHEMBL3507680, “University of Dundee, Gates Library screen for HepG2 cell viability”.

assay: Human HepG2 cell viability assay in 384 well format; type: toxicity, cell-based; design: dose 125 nL, time 70.5 hour; concentration not given beside the values; settings: HepG2 cells, read-out: Inhibition

SMILES | cytotoxicity at 70.5 h
CCCc1nc(C(=O)NCc2cccnc2-n2cncn2)cs1 | 7.67%
O=C(C1CCOc2ccccc2C1)N1Cc2cnn(CCO)c2C1 (stereo unspecified) | 9.23%
Cc1cc(CC(C)NC(=O)Cc2cc(F)ccc2C)[nH]n1 (stereo unspecified) | 3.68%
O=C(CCO)N1C[C@H]2CC[C@@H]1CN(C1Cc3ccccc3C1)C2 | -9.88%
O=C(Cc1ccc(O)c(F)c1)N1CCN(CC2CC2)[C@@H]2CS(=O)(=O)C[C@@H]21 | -6.03%
Cc1ccsc1C(CNC(=O)c1cc(=O)[nH]c(=O)[nH]1)N(C)C (stereo unspecified) | 17.7%
Cc1ccc(Sc2ccc(CN3CCC4(CC3)NCCNC4=O)o2)cc1 | 1.08%
CC(C)(C)CN1CCN(CC2CC2)C(CCO)C1 (stereo unspecified) | -0.19%
Cc1cc(CN(C)C(=O)C2CC(=O)N(Cc3cccnc3)C2)on1 (stereo unspecified) | -9.4%
O=C(O)[C@@H]1CN(Cc2cc3c(cc2Cl)OCO3)C[C@H]1C1CC1 | -1.73%
c1cc2c(cc1C[C@@H]1CC[C@H](CN3CCCOCC3)O1)OCO2 | -5.03%
CN(C)C[C@@H]1CN(Cc2ccccc2C#N)C[C@@H]1CO | 2.25%
COc1ccccc1OC1CN(C(=O)c2ccccc2C(C)=O)C1 | -19.5%
NC(=O)c1cncc(-n2ccc(-c3cnccn3)n2)c1 | -8.7%
CN1CC2(CCCN(Cc3ccccc3OCC(=O)O)C2)OC1=O (stereo unspecified) | -2.41%
CCN1CCN(Cc2nc(CCc3ccccc3)n[nH]2)CC1 | 29.9%
O=C([C@@H](O)Cc1ccccc1)N1CCCn2cncc2C1 | -7.92%
CCN1CCCC(C)(C(=O)NCCCc2nc(C)cs2)C1 (stereo unspecified) | -10.4%
CCc1cc(N[C@H]2CCC[C@H]2CO)n2nc(C)c(C)c2n1 | -2.92%
CC(NC(=O)c1coc(COc2cccc(F)c2)n1)c1nnc(N)s1 (stereo unspecified) | -10.7%
Cc1noc(-c2ccnc(Oc3ccccc3CN3CCCCC3)c2)n1 | -1.96%

SMILES | cytotoxicity at 70.5 h
COc1cccc(-c2noc(-c3ccc(NCCCN)nc3)n2)c1OC | 2.21%
Cc1[nH]c2c(F)cccc2c1CC(=O)NC1CCCCNC1=O (stereo unspecified) | 24.9%
O=C(CSc1ccncc1)N1CCC2(CC1)c1ccccc1CC2O (stereo unspecified) | -5.15%
Cn1c(CN2CCCCC2)nnc1C1CCCN(C(=O)CCC(N)=O)C1 (stereo unspecified) | -9%
O=C(O)c1cc(-c2ccncc2)cc(S(=O)(=O)N2CCCCCC2)c1 | -18.9%
CCc1cnc(NCCCN2CCC(O)CC2)nc1 | -1.08%
Cc1nc(-c2ncc(C(=O)NCCNc3ncccc3C)c(O)n2)cs1 | -2.82%
CC(CN1CCC(c2ccccc2)CC1)n1cnc2ccccc21 (stereo unspecified) | -18.3%
Cc1nn(C)c(C)c1CN(C(=O)c1cnc(O)cn1)C(C)C | -2.89%
CNC(=O)[C@@H]1C[C@H](N)CN1S(=O)(=O)c1cc(Cl)cc(Cl)c1O | -6.21%
c1csc(CN2CCCN(c3ncnc4[nH]ccc34)CC2)c1 | -13.6%
O=C(O)[C@@H]1CN(Cc2nc3ncccn3n2)C[C@H]1c1cccc(F)c1 | 26.1%
COc1ccccc1OCc1cc(C(=O)NC[C@@H]2CCCN2)n[nH]1 | -1.83%
CCc1nnc(N2C[C@@H](NC(C)=O)[C@H](c3ccc(C)o3)C2)s1 | 2.74%
OC1(CNCCSCc2ccccc2)CCCNC1 (stereo unspecified) | 18.4%
CC(C)=CCN1C[C@@H]2CN(C(=O)c3cnccc3C)C[C@]2(C(=O)O)C1 | -7.13%
CN(C)CCCC(=O)NC1CC(C)(C)Cc2nc(C(C)(C)C)ncc21 (stereo unspecified) | -17.7%
COc1ccc2c(c1OC)Cc1c-2nc(N)c(C#N)c1C1CCOC1 (stereo unspecified) | -19.2%
CCOCC(=O)N1CCc2c(ncnc2N2CCOCC2)C1 | -3.63%
CC(C)c1nccc(-c2nccn2CCS(C)(=O)=O)n1 | -16.1%
CC(C)C[C@H](NC(=O)c1cc(-c2cccn2C)n[nH]1)C(N)=O | -0.791%

SMILES | cytotoxicity at 70.5 h
COCCNc1nc2c(c(NCCc3cccs3)n1)CCNCC2 | -2.67%
Fc1ccccc1CC1CCN(Cc2nccs2)CC1 | -3.29%
C[C@@H]1CN(C(=O)C2(Cn3cccn3)CC2)CC[C@@]1(O)C1CCOCC1 | -0.0584%
CCc1cnc(N2CCCC(CCC(N)=O)C2)nc1 (stereo unspecified) | 17.3%
O[C@@H]1CN(c2noc(C3CC3)n2)CC[C@H]1c1ccc2ccccc2c1 | 17.6%
CN1CCc2[nH]cnc2C12CCN(Cc1ccc3nsnc3c1)CC2 | 0.284%
CNc1nc(C)c(C(=O)N2C[C@@H](C(=O)O)[C@H](C3CC3)C2)s1 | -6.65%
CN1CCC(C2CCN(Cc3cccc(-n4cccn4)c3)CC2)C1 (stereo unspecified) | 2.02%
CC(c1ccc(C(=O)NCCc2nc(N)cc(O)n2)o1)N1CCCCC1 (stereo unspecified) | -3.9%
CN(Cc1cc2n(n1)CCNC2)Cc1cc(-c2ccccn2)no1 | -5.4%
O=C(Cc1ccc(F)cc1Cl)N1C[C@@H](CN2CCC(O)CC2)[C@@H](CO)C1 | -3.43%
COCc1nc(Cn2c(C)cc(C(F)(F)F)cc2=O)no1 | 23.9%
Cc1nn(C)c(C)c1-c1ccnc(N(C)Cc2noc(C(C)C)n2)n1 | 7.17%
CCC(C)N(Cc1cccnc1)Cc1ccccc1Cn1cccn1 (stereo unspecified) | -9.31%
CC(C)Cc1cc(C(=O)NC(C)(CO)CO)n(C)n1 | -16.8%
Cc1nnc(CN(C)Cc2ccc(C(=O)Nc3sccc3C#N)cc2)o1 | 0.967%
CC(=O)NCCNc1cc(C)nc2cc(C)nn12 | 0.136%
Cc1nc(CN2CC(Cc3ccccc3)CC2=O)no1 (stereo unspecified) | -17.4%
CCn1cnnc1C1CCN(C(=O)c2ccccc2F)CC1 | -7.26%
CC(C)c1nccn1C1CCCN(C(=O)c2ccc3nncn3c2)C1 (stereo unspecified) | 13%
CCn1cnnc1C1CCN(C(=O)c2cc(F)ccc2OC)CC1 | -10.6%

SMILES | cytotoxicity at 70.5 h
CCn1cnnc1C1CCN(C(=O)c2cc(C)n(CC)c2C)CC1 | -5.03%
Cc1nc(C)n(CC2CCCCN2Cc2nc3ccccc3o2)n1 (stereo unspecified) | 17.7%
Cc1nc(C)n(CC2CN(CC(=O)NC3CCCC3)CCO2)n1 (stereo unspecified) | -7.31%
Cc1cnn(C2CN(Cc3nc(-c4ccsc4)no3)C2)c1 | -8.74%
CCc1nc(CNc2ccc(C(=O)N3CCSCC3)cc2C)no1 | -6.1%
CC(C)Cn1nnnc1SC(C(=O)NCc1cccnc1)C(C)C (stereo unspecified) | -4.78%
Cc1cc(CN(C)C2CCCN(c3cccnn3)C2)no1 (stereo unspecified) | -9.99%
Cc1nc(C)n(CC2CCCCN2Cc2cnc(C)s2)n1 (stereo unspecified) | -7.75%
Cc1cc(C(=O)N2CCCC(C)C2)ccc1NCc1nc(C(C)C)no1 (stereo unspecified) | -9.64%
CCN(C(C)=O)c1nc(CN2CCCCC2Cn2cncn2)cs1 (stereo unspecified) | -3.03%
Cc1cc(C)n(CC2CCCN2Cc2ncc(C(C)(C)C)o2)n1 (stereo unspecified) | -5.22%
CCn1cc(CN2CCCN(C(=O)CCSC)CC2)cn1 | -1.89%
CC(C)Oc1ccc(Cl)c(C(=O)N2CCN(CCO)CC2)n1 | -12.1%
COc1c(CNCC(O)c2ccccc2F)c(C(C)C)nn1C (stereo unspecified) | 21.4%
CCn1cc(CN2CCCN(C(=O)CCc3cccs3)CC2)cn1 | -12.3%
CCn1cc(CN2CCCN(C(=O)CCc3ccccc3)CC2)cn1 | -12.3%
COCCN1CCN(Cc2ccc(OCc3nccn3C)cc2)CC1 | -14.3%
CC(=O)N1CCN(Cc2coc(-c3cccc(F)c3)n2)CC1 | -19.9%
